Literature values in PMC9510668 (Frontiers in Pharmacology, 2022).
Converted amounts (≈) assume the structure as drawn. Where two headings read alike, the source gives them in different places.

Columns and labels:
[1] = human; ref Heath et al., 2010; cited from earlier work
VEGFR = conditions: ref Heath et al., 2010; cited from earlier work
[2] = healthy human, mean, cited from earlier work
BCRP1 = molecular target: BCRP1; design: method as in ref [8] (a number printed in a supplementary file, which may have a reference list of its own: not looked up in the article's list); conditions: lapatinib; ref [8]; cited from earlier work
OATP1B1 = conditions: lapatinib; ref [8]; cited from earlier work
CYP3A5 = test system: CYP3A5; design: method as in ref [6] (a number printed in a supplementary file, which may have a reference list of its own: not looked up in the article's list); conditions: ref [6]; cited from earlier work
[3] = cited from earlier work
P-gp = conditions: lapatinib; ref [8]; cited from earlier work
[4] = cited from earlier work; remark: listed apart in the source
CYP3A4 [5] = test system: CYP3A4; design: method as in ref [6] (a number printed in a supplementary file, which may have a reference list of its own: not looked up in the article's list); conditions: ref [6]; cited from earlier work
[6] = design: method as in Röhss and Hedenström, 2002; conditions: 40 mg OD orally for 5 days; ref Röhss and Hedenström, 2002; cited from earlier work
UGT1A1 = test system: UGT1A1; design: method as in ref [2] (a number printed in a supplementary file, which may have a reference list of its own: not looked up in the article's list); conditions: ref [2]; cited from earlier work
CYP3A4 [7] = conditions: read-out: Ki CYP3A4; ketoconazole; ref [1]; cited from earlier work

Structure (SMILES): Cc1c2ccc(N(C)c3ccnc(Nc4ccc(CO)c(S(N)(=O)=O)c4)n3)cc2nn1C [GSK1268997]
- Systemic exposure relative to unchanged PAZ [1]: about 2%
- Potency towards VEGFR in comparison to PAZ (VEGFR): equal potency

Structure (SMILES): CS(=O)(=O)CCNCc1ccc(-c2ccc3ncnc(Nc4ccc(OCc5cccc(F)c5)c(Cl)c4)c3c2)o1 [lapatinib]
- AUC0-48, Observed ([2]; lapatinib): 5328.9 ng·h/mL
- Cmax, Observed ([2]; lapatinib): 311.0 ng/mL
- Tmax, Observed ([2]; lapatinib): 3 h
- Ki (BCRP1): 25 nM
- Ki (OATP1B1): 4000 nM
- CPY3A5 CLint (CYP3A5): 5 µL/min/nmol
- Water Solubility in FaSSIF pH=6.5 ([3]; ref [3]): 5.4 μg/mL
- Ki (P-gp): 3900 nM
- fup ([4]; lapatinib, ref [4]): 0.01
- Rbp ([4]; lapatinib, ref [5]): 0.84
- CPY3A4 CLint (CYP3A4 [5]): 105 µL/min/nmol

Structure (SMILES): COc1ccc2nc([S@@+]([O-])Cc3ncc(C)c(OC)c3C)[nH]c2c1 [esomeprazole]
- Human intragastric mean 24-h pH [6]: 4.78

Structure (SMILES): CC(=O)N1CCN(c2ccc(OCC3COC(Cn4ccnc4)(c4ccc(Cl)cc4Cl)O3)cc2)CC1 (stereo not drawn) [ketoconazole]
- AUC0-48, Observed ([2]; ketoconazole): 40600 ng·h/mL
- Cmax, Observed ([2]; ketoconazole): 6200 ng/mL
- Solubility in buffer ([3]; @pH6.5, ref [1]): 6.93 µg/mL (≈ 13 µM)
- Log (@pH7.4), lipophilicity ([3]; pH7.4, ref [1]): 2.67
- Rbp ([4]; ketoconazole, ref [1]): 0.59
- Km (UGT1A1): 22.3 µM
- UGT1A1 Vmax (UGT1A1): 9.37 pmol/min/pmol
